The values below come from US12662469B2 (SIRONAX LTD, priority 2018, dated 2026).

Structures are written as SMILES.

The subject of one experiment is Cell Necrosis. In words: Cell necrosis assay / cell viability assay (necrosis inhibitor activity). Format: cell-based.
Details: not given
On to `O=C1COc2cc(F)c(OC3CN(C(=O)N4N=CC[C@H]4c4ccccc4)C3)cc2N1` [Compound 192, (S)-7-fluoro-6-((1-(5-phenyl-4,5-dihydro-1H-pyrazole-1-carbonyl)azetidin-3-yl)oxy)-2H-benzo[b][1,4]oxazin-3(4H)-one], for which the “activity based on the cell activity assay” value is listed as “potent activity”.

In the case of `O=C(N1CC(Oc2ccc3ccccc3c2)C1)N1N=CC[C@H]1c1cc(F)cc(F)c1` [Compound 203, (S)(5-(3,5-difluorophenyl)-4,5-dihydro-1H-pyrazol-1-yl)(3-(naphthalen-2-yloxy)azetidin-1-yl)methanone], the EC50 (as a rule, the concentration at which the effect is half-maximal) was 1 to 1000 nM.

Staying with this experiment, now noted: necrosis inhibitor activity; EC data for 14-191 extrapolated; read-out: EC50.
As for `O=C(N1CC(Oc2scc3c(=O)[nH]cnc23)C1)N1N=CCC1c1cc(F)cc(F)c1` (stereo not shown) [Compound 169], the EC50 is 1 to 1000 nM.

Turning to `CNC(=O)c1nc(OC2CN(C(=O)N3N=CCC3c3cc(F)cc(F)c3)C2)sc1F` (stereo not shown) [Compound 170], the EC50 was 1 to 1000 nM.

Turning to `CNC(=O)c1csc(OC2CN(C(=O)N3N=CCC3c3cc(F)cc(F)c3)C2)n1` (stereo not shown) [Compound 171], the EC50 is 1 to 1000 nM.

In the case of `CNC(=O)c1nc(OC2CN(C(=O)N3N=CCC3c3cc(F)cc(F)c3)C2)oc1F` (stereo not shown) [Compound 172], the EC50 was 1 to 1000 nM.

With `CNC(=O)c1coc(OC2CN(C(=O)N3N=CCC3c3cc(F)cc(F)c3)C2)n1` (stereo not shown) [Compound 173], the EC50 was 1 to 1000 nM.

Regarding `O=C(N1CC(Oc2nc3c(=O)[nH]ccc3s2)C1)N1N=CCC1c1cc(F)cc(F)c1` (stereo not shown) [Compound 174], the EC50 was 1 to 1000 nM.

As to `Cc1csc(OC2CN(C(=O)N3N=CCC3c3cc(F)cc(F)c3)C2)n1` (stereo not shown) [Compound 175], the EC50 was 1 to 1000 nM.

On to `Cc1cnc(OC2CN(C(=O)N3N=CCC3c3cc(F)cc(F)c3)C2)s1` (stereo not shown) [Compound 176], for which the EC50 is 1 to 1000 nM.

Regarding `O=C(N1CC(Oc2ccc3cc[nH]c3c2)C1)N1N=CCC1c1cc(F)cc(F)c1` (stereo not shown) [Compound 177], the EC50 was 1 to 1000 nM.

On to `O=C(N1CC(Oc2ccc3nc[nH]c3c2)C1)N1N=CCC1c1cc(F)cc(F)c1` (stereo not shown) [Compound 178], for which the EC50 is 1 to 1000 nM.

Turning to `O=C(N1CC(Oc2nc3[nH]c(=O)ccc3s2)C1)N1N=CCC1c1cc(F)cc(F)c1` (stereo not shown) [Compound 179], the EC50 was 1 to 1000 nM.

As to `O=C1NCc2cc(OC3CN(C(=O)N4N=CCC4c4cc(F)cc(F)c4)C3)ccc21` (stereo not shown) [Compound 180], the EC50 was 1 to 1000 nM.

Consider `O=C(N1CC(Oc2ccc3ccc(=O)[nH]c3c2)C1)N1N=CCC1c1cc(F)cc(F)c1` (stereo not shown) [Compound 181], for which the EC50 is 1 to 1000 nM.

As for `O=C(N1CC(Oc2ccc3cn[nH]c3c2)C1)N1N=CCC1c1cc(F)cc(F)c1` (stereo not shown) [Compound 182], the EC50 is 1 to 1000 nM.

As to `O=C(N1CC(=Cc2ccc3cc[nH]c3c2)C1)N1N=CCC1c1cc(F)cc(F)c1` (stereo not shown) [Compound 184], the EC50 was 1 to 1000 nM.

Consider `O=C(N1CC(Oc2ccc3oc(=O)[nH]c3c2)C1)N1N=CCC1c1cc(F)cc(F)c1` (stereo not shown) [Compound 185], for which the EC50 is 1 to 1000 nM.

In the case of `O=C(N1CC(Oc2ccc(=O)[nH]c2)C1)N1N=CCC1c1cc(F)cc(F)c1` (stereo not shown) [Compound 186], the EC50 was 1 to 1000 nM.

On to `O=C(N1CC(=Cc2ccc(=O)[nH]c2)C1)N1N=CCC1c1cc(F)cc(F)c1` (stereo not shown) [Compound 187], for which the EC50 is 1 to 1000 nM.

In the case of `Cn1c(OC2CN(C(=O)N3N=CCC3c3cc(F)cc(F)c3)C2)cccc1=O` (stereo not shown) [Compound 188], the EC50 was 1 to 1000 nM.

As for `O=C(N1CC(Oc2ccc3ccc(=O)[nH]c3c2)C1)N1N=CCC1c1cc(F)cc(F)c1` (stereo not shown) [Compound 189], the EC50 is 1 to 1000 nM.

On to `O=C(N1CC(=Cc2ccc3ccc(=O)[nH]c3c2)C1)N1N=CCC1c1cc(F)cc(F)c1` (stereo not shown) [Compound 190], for which the EC50 is 1 to 1000 nM.

As to `O=C(N1CC(Cc2ccc3nc[nH]c3c2)C1)N1N=CCC1c1cc(F)cc(F)c1` (stereo not shown) [Compound 191], the EC50 is 1 to 1000 nM.

The experiment is the same for the next values; noted with them: necrosis inhibitor activity; compounds outside 14-191; read-out: EC50.
In the case of `O=C1COc2cc(F)c(OC3CN(C(=O)N4N=CC[C@H]4c4ccccc4)C3)cc2N1` [Compound 192, (S)-7-fluoro-6-((1-(5-phenyl-4,5-dihydro-1H-pyrazole-1-carbonyl)azetidin-3-yl)oxy)-2H-benzo[b][1,4]oxazin-3(4H)-one], the EC50 fell in the range of 1 to 1000 nM.

Consider `O=C1COc2cc(F)c(OC3CN(C(=O)N4N=CC[C@H]4c4cc(F)cc(F)c4)C3)cc2N1` [Compound 193, (S)-6-((1-(5-(3,5-difluorophenyl)-4,5-dihydro-1H-pyrazole-1-carbonyl)azetidin-3-yl)oxy)-7-fluoro-2H-benzo[b][1,4]oxazin-3(4H)-one], for which the EC50 lay within 1 to 1000 nM.

As for `O=C1COc2cc(F)c(OC3CN(C(=O)N4N=CC[C@H]4c4cncc(F)c4)C3)cc2N1` [Compound 194, (S)-7-fluoro-6-((1-(5-(5-fluoropyridin-3-yl)-4,5-dihydro-1H-pyrazole-1-carbonyl)azetidin-3-yl)oxy)-2H-benzo[b][1,4]oxazin-3(4H)-one], the 50% effective concentration (EC50) lay within 1 to 1000 nM.

Take `N#Cc1cccc([C@@H]2CC=NN2C(=O)N2CC(Oc3cc4c(cc3F)OCC(=O)N4)C2)c1` [Compound 195]: the EC50 was in the range of 1 to 1000 nM.

As to `O=C1COc2cc(F)c(O[C@@H]3CCN(C(=O)N4N=CC[C@H]4c4cc(F)cc(F)c4)C3)cc2N1` [Compound 196], the EC50 fell in the range of 1 to 1000 nM.

`N#Cc1cncc([C@@H]2CC=NN2C(=O)N2CC(Oc3cc4c(cc3F)OCC(=O)N4)C2)c1` [Compound 197, (S)-5-(1(3-((7-fluoro-3-oxo-3,4-dihydro-2H-benzo[b][1,4]oxazin-6-yl)oxy)azetidine-1-carbonyl)-4,5-dihydro-1H-pyrazol-5-yl)nicotinonitrile]: the EC50 was 1 to 1000 nM.

Regarding `N#Cc1cc(F)cc([C@@H]2CC=NN2C(=O)N2CC(Oc3ccc4c(c3)NC(=O)CO4)C2)c1` [Compound 198, (S)-3-fluoro-5-(1-(3-((3-oxo-3,4-dihydro-2H-benzo[b][1,4]oxazin-6-yl)oxy)azetidine-1-carbonyl)-4,5-dihydro-1H-pyrazol-5-yl)benzonitrile], the EC50 lay in the range of 1 to 1000 nM.

Regarding `O=C1COc2ccc(OC3CN(C(=O)N4N=CC[C@H]4c4ccccc4)C3)cc2N1` [Compound 199, (S)-6-((1-(5-phenyl-4,5-dihydro-1H-pyrazole-1-carbonyl)azetidin-3-yl)oxy)-2H-benzo[b][1,4]oxazin-3(4H)-one], the half-maximal effective concentration (EC50) fell in the range of 1 to 1000 nM.

As for `O=C1COc2cc(F)c(OC3CN(C(=O)N4N=CC[C@H]4c4cccc(F)c4)C3)cc2N1` [Compound 200, (S)-7-fluoro-6-((1-(5-(3-fluorophenyl)-4,5-dihydro-1H-pyrazole-1-carbonyl)azetidin-3-yl)oxy)-2H-benzo[b][1,4]oxazin-3(4H)-one], the EC50 is 1 to 1000 nM.

Turning to `O=C1COc2ccc(OC3CN(C(=O)N4N=CC[C@H]4c4cc(F)cc(F)c4)C3)cc2N1` [Compound 201, (S)-6-((1-(5-(3,5-difluorophenyl)-4,5-dihydro-1H-pyrazole-1-carbonyl)azetidin-3-yl)oxy)-2H-benzo[b][1,4]oxazin-3(4H)-one], the EC50 lay in the range of 1 to 1000 nM.

As for `O=C1CCc2cc(F)c(OC3CN(C(=O)N4N=CC[C@H]4c4cc(F)cc(F)c4)C3)cc2N1` [Compound 202, (S)-7-((1-(5-(3,5-difluorophenyl)-4,5-dihydro-1H-pyrazole-1-carbonyl)azetidin-3-yl)oxy)-6-fluoro-3,4-dihydroquinolin-2(1H)-one], the EC50 fell in the range of 1 to 1000 nM.

For the compound `O=C(N1CC(Oc2ccc3ccc(=O)[nH]c3c2)C1)N1N=CCC1c1cc(F)cc(F)c1` (stereo not shown) [Compound 204, 7-((1-(5-(3,5-difluorophenyl)-4,5-dihydro-1H-pyrazole-1-carbonyl)azetidin-3-yl)oxy)quinolin-2(1H)-one], the concentration giving a half-maximal response (EC50) was 1 to 1000 nM.

Turning to `O=C(N1CC(Oc2ccc3ccc(=O)[nH]c3c2)C1)N1N=CC[C@H]1c1cc(F)cc(F)c1` [Compound 205, (S)-7-((1-(5-(3,5-difluorophenyl)-4,5-dihydro-1H-pyrazole-1-carbonyl)azetidin-3-yl)oxy)quinolin-2(1H)-one], the EC50 lay in the range of 1 to 1000 nM.
